Values of other authors, collected in US10647965B2, “Hetero-transglycosylase and uses thereof” (BASF SE, priority 2013, dated 2020).

Tested on: XTHs (xyloglucan endotransglucosylases)
Conditions: read-out: KM for XXXGol, comparison value, donor not stated

- Km: 50 to 200 µM
SMILES: OC[C@@H](O)[C@@H](O[C@@H]1O[C@H](CO[C@H]2OC[C@@H](O)[C@H](O)[C@H]2O)[C@@H](O[C@@H]2O[C@H](CO[C@H]3OC[C@@H](O)[C@H](O)[C@H]3O)[C@@H](O[C@@H]3O[C@H](CO[C@H]4OC[C@@H](O)[C@H](O)[C@H]4O)[C@@H](O)[C@H](O)[C@H]3O)[C@H](O)[C@H]2O)[C@H](O)[C@H]1O)[C@H](O)[C@@H](O)CO [XXXGol, Xyl3.Glc3.glucitol]
